Measured values as given in the supplement of paper PMC11208160.

Test: recombinant barcode read abundance after kanamycin selection (control-corrected) (log10(CPM+1)); higher = more efficient recombination; sequences stand for … in AGTGCAGAGAAAATCGGCCAGTTTTCTCTGCCTGCAGTCCGCATGCCGT…AGATTTATGCAGCGGACTGCCTTTCTCCCAAAGTGATAAACCGGACAGTATCATGGACCGGTTTTCCCGGTAATCCGTATTTGCAAGGTTGGTTTCACT; site = the 11-nt target
How it was run: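 Targets and IS621 bridge RNA target-binding loops were paired in oligos, each with a promoter, a barcode and the J23119-driven first 104 bridge RNA bases. A vector carrying the remaining 73 bp and a T7-inducible recombinase received these by Gibson cloning, and the pool was co-electroporated into E. coli with a donor plasmid. Duplicate plates contained chloramphenicol/ampicillin LB agar (control) or chloramphenicol/ampicillin/kanamycin with 0.1 mM IPTG. Recombination efficiency comes from averaged, control-corrected counts per million of recombinant-junction barcodes, reported as log10(CPM+1).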
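Further: IS621 recombinase and bridge RNA in Escherichia coli cells.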

Sequence | recombinant barcode read abundance (log10)
CTACACACTTGGGTTCTAACCTGTTGCTA (site CTACACACTTA) | 1.91
CTACACCCTTGGGTTCTAACCTGTTGCGA (site CTAAACCCTAC) | 0.0483
CTACACCCTTGGGTTCTAACCTGTTGCGA (site CTACACCCTTC) | 2.39
CTACATCCTTGGGTTCTAACCTGTTGCTT (site CTACAACCTAA) | 0.00817
CTACATCCTTGGGTTCTAACCTGTTGCTT (site CTACACCCTAA) | 0.157
CTACATCCTTGGGTTCTAACCTGTTGCTT (site CTACAGCCTAA) | 0.0896
CTACATCCTTGGGTTCTAACCTGTTGCTT (site CTACATCCTAA) | 1.49
CTACCTACTTGGGTTCTAACCTGTTGCGG (site AATATCTCTTG) | 0.224
CTACCTACTTGGGTTCTAACCTGTTGCGG (site CTACCTACTCC) | 2.72
CTACGAACTTGGGTTCTAACCTGTTGCGG (site CTACGAACTCC) | 2.17
CTACGAACTTGGGTTCTAACCTGTTGCGG (site TGGACCTCTTG) | 0.181
CTACGACCTTGGGTTCTAACCTGTTGCAG (site CTACGACCTCT) | 2.56
CTACGACCTTGGGTTCTAACCTGTTGCAG (site TACGATACTAC) | 0.186
CTACGACCTTGGGTTCTAACCTGTTGCGG (site CTACGACCTCC) | 2.9
CTACGACCTTGGGTTCTAACCTGTTGCGG (site TACAAGTCTAG) | 0.164
CTACGCGCTTGGGTTCTAACCTGTTGCTT (site CTACGCGCTAA) | 0.921
CTACGCGCTTGGGTTCTAACCTGTTGCTT (site GTACGCGCTAC) | 0.309
CTACGGCCTTGGGTTCTAACCTGTTGCGT (site CTACGGCCTAC) | 1.05
CTACGGCCTTGGGTTCTAACCTGTTGCGT (site GGACGGCCTAC) | 0.281
CTAGACTCTTGGGTTCTAACCTGTTGCAC (site CTAGACTCTAT) | 0.626
CTAGACTCTTGGGTTCTAACCTGTTGCAC (site CTAGACTCTCT) | 0.0956
CTAGACTCTTGGGTTCTAACCTGTTGCAC (site CTAGACTCTGT) | 2.77

Sequence | recombinant barcode read abundance (log10)
CTAGACTCTTGGGTTCTAACCTGTTGCAC (site CTAGACTCTTT) | 0.11
CTAGACTCTTGGGTTCTAACCTGTTGCAG (site CTAGACTCTAT) | 0.88
CTAGACTCTTGGGTTCTAACCTGTTGCAG (site CTAGACTCTCT) | 2.42
CTAGACTCTTGGGTTCTAACCTGTTGCAG (site CTAGACTCTGT) | 1.16
CTAGACTCTTGGGTTCTAACCTGTTGCAG (site CTAGACTCTTT) | 0.376
CTAGCGACTTGGGTTCTAACCTGTTGCAC (site AGGAGAGCTAA) | 0.409
CTAGCGACTTGGGTTCTAACCTGTTGCAC (site CTAGCGACTGT) | 1.15
CTAGCGACTTGGGTTCTAACCTGTTGCCG (site ACGCTATCTAA) | 0.102
CTAGCGACTTGGGTTCTAACCTGTTGCCG (site CTAGCGACTCG) | 0.834
CTAGCTCCTTGGGTTCTAACCTGTTGCTT (site CTAGCTCCTAA) | 0.0882
CTAGCTCCTTGGGTTCTAACCTGTTGCTT (site GCTTGGTCTTC) | 0.0776
CTAGGAGCTTGGGTTCTAACCTGTTGCCT (site CTAGGACCTTG) | 0.0183
CTAGGAGCTTGGGTTCTAACCTGTTGCCT (site CTAGGAGCTAG) | 0.148
CTAGGAGCTTGGGTTCTAACCTGTTGCTA (site CTAGGAGCTAA) | 0.137
CTAGGAGCTTGGGTTCTAACCTGTTGCTA (site CTAGGAGCTCA) | 0.231
CTAGGAGCTTGGGTTCTAACCTGTTGCTA (site CTAGGAGCTGA) | 0.0444
CTAGGAGCTTGGGTTCTAACCTGTTGCTA (site CTAGGAGCTTA) | 1.23
CTAGGAGCTTGGGTTCTAACCTGTTGCTG (site CTAGGAGCTAA) | 0.19
CTAGGAGCTTGGGTTCTAACCTGTTGCTG (site CTAGGAGCTCA) | 1.75
CTAGGAGCTTGGGTTCTAACCTGTTGCTG (site CTAGGAGCTGA) | 0.169
CTAGGAGCTTGGGTTCTAACCTGTTGCTG (site CTAGGAGCTTA) | 0.073
CTAGGATCTTGGGTTCTAACCTGTTGCCA (site CTAGGATCTAT) | 0.844

Sequence | recombinant barcode read abundance (log10)
CTAGGATCTTGGGTTCTAACCTGTTGCCA (site CTAGGATCTTG) | 0.24
CTAGGCCCTTGGGTTCTAACCTGTTGCGT (site CTAGGCCCTAA) | 0.361
CTAGGCCCTTGGGTTCTAACCTGTTGCGT (site CTAGGCCCTAC) | 3.3
CTAGGCCCTTGGGTTCTAACCTGTTGCGT (site CTAGGCCCTAG) | 0.264
CTAGGCCCTTGGGTTCTAACCTGTTGCGT (site CTAGGCCCTAT) | 2.28
CTAGTAGCTTGGGTTCTAACCTGTTGCCG (site CTAGTAGCTCG) | 1.84
CTAGTAGCTTGGGTTCTAACCTGTTGCCG (site CTATTAGCTCG) | 0.277
CTAGTAGCTTGGGTTCTAACCTGTTGCGT (site CTAGTAGCTAC) | 2.25
CTAGTAGCTTGGGTTCTAACCTGTTGCGT (site CTAGTAGCTCC) | 0.378
CTAGTCTCTTGGGTTCTAACCTGTTGCGT (site CTAGGATCTAC) | 0.0308
CTAGTCTCTTGGGTTCTAACCTGTTGCGT (site CTAGTCTCTAC) | 3.07
CTAGTGACTTGGGTTCTAACCTGTTGCGC (site CTAGTGACTAC) | 0.0258
CTAGTGACTTGGGTTCTAACCTGTTGCGC (site CTAGTGACTCC) | 0.0835
CTAGTGACTTGGGTTCTAACCTGTTGCGC (site CTAGTGACTGC) | 2.12
CTAGTGACTTGGGTTCTAACCTGTTGCGC (site CTAGTGACTTC) | 0.127
CTAGTGACTTGGGTTCTAACCTGTTGCGT (site CTAGTGACTAC) | 1.17
CTAGTGACTTGGGTTCTAACCTGTTGCGT (site CTAGTGACTCC) | 0.313
CTAGTGACTTGGGTTCTAACCTGTTGCGT (site CTAGTGACTGC) | 0.0977
CTAGTGACTTGGGTTCTAACCTGTTGCGT (site CTAGTGACTTC) | 0.00958
CTATACTCTTGGGTTCTAACCTGTTGCCA (site CTATACTCTTG) | 1.03
CTATACTCTTGGGTTCTAACCTGTTGCCA (site CTATTCTCTTA) | 0.195
CTATATGCTTGGGTTCTAACCTGTTGCTT (site CTATATGCTAA) | 0.613

Sequence | recombinant barcode read abundance (log10)
CTATATGCTTGGGTTCTAACCTGTTGCTT (site TAGACCACTGT) | 0.449
CTATCGCCTTGGGTTCTAACCTGTTGCCT (site CTATCGCCTAG) | 0.496
CTATCGCCTTGGGTTCTAACCTGTTGCCT (site CTCTCGCCTAG) | 0.238
CTATCGCCTTGGGTTCTAACCTGTTGCCT (site CTGTCGCCTAG) | 0.0772
CTATCGCCTTGGGTTCTAACCTGTTGCCT (site CTTTCGCCTAG) | 0.0941
CTATTATCTTGGGTTCTAACCTGTTGCCT (site CTATTATCTAG) | 0.935
CTATTATCTTGGGTTCTAACCTGTTGCCT (site CTGTTATCTAG) | 0.0433
CTATTCTCTTGGGTTCTAACCTGTTGCCT (site CTATTCACTAG) | 0.472
CTATTCTCTTGGGTTCTAACCTGTTGCCT (site CTATTCCCTAG) | 0.188
CTATTCTCTTGGGTTCTAACCTGTTGCCT (site CTATTCGCTAG) | 0.011
CTATTCTCTTGGGTTCTAACCTGTTGCCT (site CTATTCTCTAG) | 2.03
CTATTTGCTTGGGTTCTAACCTGTTGCAA (site CTAATTGCTTT) | 0.0524
CTATTTGCTTGGGTTCTAACCTGTTGCAA (site CTACTTGCTTT) | 0.103
CTATTTGCTTGGGTTCTAACCTGTTGCAA (site CTAGTTGCTTT) | 0.0402
CTATTTGCTTGGGTTCTAACCTGTTGCAA (site CTATTTGCTTT) | 0.0441
CTCATTCCTTGGGTTCTAACCTGTTGCGT (site CTCATTCCTAA) | 0.00984
CTCATTCCTTGGGTTCTAACCTGTTGCGT (site CTCATTCCTAC) | 1.4
CTCATTCCTTGGGTTCTAACCTGTTGCGT (site CTCATTCCTAG) | 0.0869
CTCATTCCTTGGGTTCTAACCTGTTGCGT (site CTCATTCCTAT) | 0.212
CTCCATTCTTGGGTTCTAACCTGTTGCAT (site CTCAATTCTAT) | 0.217
